Data: patent US6218102A, “Synthetic peptides and mixtures thereof for detecting HIV antibodies” (priority 1988, dated 2001)
Ends that are not written are not given here.

Test system: Antibodies to HIV-1
Test: ELISA with peptide or peptide mixture as antigen, identifying HIV-1 positive sera
Assay type: binding, human
Details: single peptide, known HIV-1 positive sera, Table 3
Experimental: According to this test a peptide or a peptide mixture of the present invention is adsorbed onto the wells of a microtiter plate. The wells are then treated with sera to be tested. After washing, anti-human IgG labeled with peroxidase is added to the wells. The determination of the peroxidase is performed with a corresponding substrate, e.g. with o-phenylene diamine. Also in this procedure the peroxidase can be exchanged by another label, e.g. by a radioactive or fluorescence label.
Each well of the microtiter plate is saturated with 100 μl of a solution containing a peptide or mixture of peptides (5 μg/ml) and left overnight. The wells are emptied and washed twice with a washing buffer (Tris, 0.043M; NaCl, 0.5M; thimerosal, 0.01% w/v; Tween 20, 0.05% v/v; pH7.4). The wells are then saturated with 0.35 ml of washing buffer for 1 hr. at 37° C. and washed once with the same buffer. Serum samples to be analyzed are diluted with specimen buffer (washing buffer plus casein, 0.05% w/v). The wells are rinsed with washing buffer prior to the addition of the diluted serum sample (0.1 ml). These are left to incubate for 1 hr. at room temperature. The wells are then emptied, washed twice rapidly and then once for two minutes with washing buffer. […] The wells are then emptied and washed twice rapidly with washing buffer and then five times in which the buffer was in contact with the well 2 minutes per washing. The substrate solution (3,3', 5,5'-tetramethylbenzidine, 8 mg per ml of DMSO) is diluted with 100 volumes 0.1M citrate-acetate buffer, pH 5.6 containing 0.1% v/v of 30% H2 O2 and added to each well (0.1 ml per well). After 10 minutes the contents of each well is treated with 0.1 ml 2N H2 SO4 and the optical density read at 450 nm. All determinations are done in duplicate.

Substance | % Positive Sera Correctly Identified [%]
NH2 -CGVERYLKQQLLGIWGCSGKLICTTAVPWNASWSNKSLEQI-COOH [Peptide 99] | 100
NH2 -CGYLKDQQLLGIWGCSGKLICTTAVPWNASWSNKSLEQI-COOH [Peptide 97] | 100
NH2 -FAFAFGCSGKLICTTAVPWNASWSNKSLEQI-COOH [Peptide 91] | 94
NH2 -GCSGKLICTTAVPWNASWSWSNKSLEQI-COOH [Peptide 95] | 100
NH2 -IWGCSGKLICTTAVPWNAS-COOH (H-IWGCSGKLICTTAVPWNAS-OH; cysteine pairing not given here) [Peptide 78, gp 41 602-620] | 100
NH2 -SGKLICTTAVPWNASWSNKSLEQGC-COOH [Peptide 56] | 100
NH2 -VERYLKDQQLLGIWGCSGKLICTTAVPWNAS-COOH (H-VERYLKDQQLLGIWGCSGKLICTTAVPWNAS-OH; cysteine pairing not given here) [Peptide 81, gp 41 590-620] | 100
TKAKRRVVQREKRGAVGIGALFLGFLGAAGSG [Peptide 93] | 37
TTAVPWNASWSNKSLEQGC [Peptide 42] | 5
